≈ marks a conversion by molar mass, not a printed value.
Columns and labels:
physchem = assay: physchem
Method: Changes in water solubility of dexamethasone (DEX) with changes in HGC concentration were analyzed. An excessive amount of DEX was added to 3 mL of an aqueous solution of HGC (PBS, HGC concentration=0 to 4%, w/v). The samples were then stirred for 30 minutes and incubated in a shaking water bath (100 rpm, 37° C.) for 24 hours. All the samples were filtered through a syringe filter (0.8 μm) to remove precipitates and then analyzed using a UV-visible spectrophotometer (V-730, JASCO, Korea). The solubility value of DEX was determined using a standard curve of various DEX concentrations obtained at 242 nm. The test was repeated three times.

[1] = In vitro drug release in PBS using a dialysis membrane; format: physicochemical; conditions: HGC 3.0 wt %, drug 2.0 wt % formulations and drug controls
Method: The in vitro drug release profiles of the thermogel formulations were examined in PBS (pH 7.4) using a dialysis membrane. […] Then, the dialysis bags were immersed in 50 mL of PBS and incubated in a shaking water bath (SI-600R, Jeio Tech, Seoul, Korea) at 37° C. and 100 rpm or less.
After incubation, 10 ml of the release medium was taken out and the same amount of fresh medium was added again. The collected samples were analyzed by UV-Vis measurement. The DEX release profile was determined by measuring the UV absorbance of DEX at 242 nm. The experiment was performed in triplicate and data are expressed as mean±SD.
023 microspheres loaded with dexamethasone were mixed with 4 wt % of HGC hydrogel. An in vitro drug release test was conducted in a PBS (pH 7.4, 50 ml) environment in the same manner as in Example 4. Sampling was performed at days 0, 0.5, 1, 2, 4, 7, 14, 21, 28, and 30.
Dexamethasone-loaded 061 or 062 microspheres were mixed with 4 wt % of HGC hydrogel, and an in vitro drug release test therefor was conducted in the same manner as the test for the 023.

Structure (SMILES): C[C@@H]1C[C@H]2[C@@H]3CCC4=CC(=O)C=C[C@]4(C)[C@@]3(F)[C@@H](O)C[C@]2(C)[C@@]1(O)C(=O)CO [DEX, Dexamethasone]
- increase of solubility of dexamethasone (physchem): about 4 times
- solubility at 24 h (physchem; 37 °C, aqueous with cosolvent or surfactant or cyclodextrin, thermodynamic from solid): 221 µg/mL (≈ 563 µM)
- solubility of dexamethasone in PBS (physchem; HGC 0 wt %, 37° C., 24 hours): 64 µg/mL

Structure (SMILES): C[C@@H]1C[C@H]2[C@@H]3CCC4=CC(=O)C=C[C@]4(C)[C@@]3(F)[C@@H](O)C[C@]2(C)[C@@]1(O)C(=O)COP(=O)([O-])[O-].[Na+].[Na+] [DSP, DEX phosphate disodium salt]
- drug release behavior (Example 8-2) [1]: completely released the drug quickly within a few hours
